Here are results for twelve compounds from US20250304549A1, “HYDROXYAMIDE DERIVATIVE AND USE THEREOF” (SICHUAN HUIYU PHARMACEUTICAL CO., LTD., priority 2022, published 2025).

The structures appear in SMILES notation. Structures can show the parent of a compound that is named as a salt.

For test [1], the target named is LSD1 (Homo sapiens (Human), UniProt O60341). The experiment in a line: In vitro enzyme inhibition assay - LSD1 (HTRF). Type of test: biochemical. How it is done: 1. In Vitro Enzyme Inhibition Assay—LSD1
Initially, a master solution of 90 μM test compound (dissolved in DMSO) was prepared and sequentially diluted with DMSO in a 5-fold concentration gradient to yield a total of 9 concentrations of the compound working solution 1 (90×). Subsequently these 9 concentrations of working solution 1 were sequentially diluted by a 30-fold concentration gradient, i.e., 2 μL of working solution 1 was aspirated and added to 58 μL of Buffer, mixed on a vortex mixer with sufficient shaking to yield 9 concentrations of the screening test compound working solution 2 (3×). […] The mixture was incubated at room temperature for 15 minutes. […] Afterward, 2 μL of a termination solution (containing 5.4 mM 2-PCPA) was added to each well, mixed evenly, and incubated for another 15 minutes. Finally 4 μL of a pre-mixed antibody solution of Eu-anti H3K4 (PerkinElmer, TRF0404-D) and allophycocyanin (Prozyme, PJ27S) (1:1) was added to each well, mixed evenly, and incubated for 60 minutes. […] The inhibition rate was calculated through the following formula: […]
(§1) Note: ‘Negative’ refers to the group without the inhibitor; ‘Blank’ refers to the group without the enzyme.
(§2) The IC50 value was calculated by fitting the inhibition rate by GraphPad Prism software, employing log (inhibitor) vs. response-Variable Slope (four parameters) model.
On the technique in general: Time-resolved FRET reads energy transfer from a long-lived donor to a nearby acceptor.

Test [2] addresses pan-HDAC. The experiment in a line: In vitro enzyme inhibition assay - HDAC (HDAC-Glo I/II), pan-HDAC. Type of test: biochemical. How it is done:
2. In Vitro Enzyme Inhibition Assay—HDAC
The effect of the compound on the enzymatic activity of pan-HDAC and two isoforms (HDAC1 and HDAC8) was examined using the HDAC-Glo I/II Assay and Screening System assay to assess the level of inhibition of HDAC protease activity and selectivity in each isoform. The proteins and detection reagents were from the HDAC-Glo™ I/II Assay and Screening System (Promega). A 1 mM stock solution of the compound was prepared in DMSO and diluted in a 5-fold gradient to create a series of 8 concentrations, and a specific volume of the highest concentration was diluted 25 times with HDAC Buffer to obtain 4× working solution of the compound. […] The 384-well plate was then read on a multifunctional microplate reader, with the Luminescence channel selected to record Luminescence values (RLU). The inhibition rate was calculated using the following formula: […]
as §1, §2

Test [3] concerns NCI-H1417 cells. The test is described as follows: In vitro cell inhibition assay - H1417 cell proliferation (CellTiter-Glo). Type of test: cell-based. The following applies: Homo sapiens, NCI-H1417, H1417 small cell lung cancer cell proliferation. How it is done: 3. In Vitro Cell Inhibition Assay—H1417 Cell Proliferation
The inhibitory effect of the compounds on cell proliferation was assessed by detecting the number of viable cells using the CellTiter-Glo® reagent. […] The compounds were sequentially diluted in a 5-fold concentration gradient with DMSO to obtain 8 different concentrations o. These were diluted with BEGM (containing 10% FBS) cell culture medium to obtain the compound working solution (2×), which was added to the cell supernatant at 100 μL per well. The incubation continued for 7 days at 37° C., 5% CO2. The plate was then removed and equilibrated to room temperature (25° C.) along with the CellTiter-Glo® mixing reagent for 10-30 minutes. After centrifugation, 100 μL of the culture medium was carefully aspirated from each well, and 85 μL of CellTiter-Glo® reagent was added. The cells were thoroughly mixed with the CellTiter-Glo® mixing reagent using a microplate shaker for 2 min. and then incubated at room temperature for 10 min. The 96-well plate was subsequently placed on a multifunctional microplate reader to record the Luminescence values (RLU). • The inhibition rate was calculated using the following formula: […]
(§3) Note: ‘Negative’ refers to the group without inhibitors; ‘Blank’ refers to the group without cells.
(§4) The IC50 value was determined by fitting the inhibition rate by GraphPad Prism software.
Background: ATP-based viability assays read luminescence as a measure of living cells.

For test [4], the system named is NCI-H69 cells. The experiment in a line: In vitro cell inhibition assay - NCI-H69 cell proliferation (CellTiter-Glo). Type of test: cell-based. As to conditions: Homo sapiens, NCI-H69, H69 small cell lung cancer cell proliferation. How it is done:
4. In Vitro Cell Inhibition Assay—NCI-H69 Cell Proliferation
The inhibitory effect of the compounds on cell proliferation was assessed by detecting the number of viable cells using the CellTiter-Glo® reagent. NCI-H69 cells in the logarithmic growth phase were collected and inoculated into transparent bottom 96-well plates at a density 1×10^3 cells per well with 100 μL medium, and incubated at 37° C., 5% CO2 overnight. The compounds were sequentially diluted in a 5-fold concentration gradient with DMSO to obtain 8 different concentrations These were then diluted with RPMI-640 (containing 20% FBS) cell culture medium to obtain the compounds working solution (2×), which was added to the cell supernatant at 100 μL per well. The incubation continued for 7 days at 37° C., 5% CO2. The plate was then removed and equilibrated to room temperature (25° C.) along with the CellTiter-Glo® mixing reagent for 10-30 minutes. After centrifugation at 1200 rpm for 5 minutes, 120 μL of the culture medium was carefully aspirated from each well, and 60 μL of CellTiter-Glo® reagent was added. The cells were thoroughly mixed with the CellTiter-Glo® mixing reagent using a microplate shaker for 2 min. and then incubated at room temperature for 10 min. The 96-well plate was subsequently placed on a multifunctional microplate reader to record the Luminescence values (RLU).
The inhibition rate was calculated using the following formula: […]
as §3, §4

Consider `CC(C)(O)Cn1nnc2cc(-c3cnc(N4CCC(NCc5ccc(/C=C/C(=O)NO)cn5)CC4)c(C#N)c3-c3ccc(C#N)c(F)c3)ccc21` [Example 224, (E)-3-(6-(((1-(3-Cyano-4-(4-cyano-3-fluorophenyl)-5-(1-(2-hydroxy-2-methylpropyl)-1H-benzo[d][1,2,3]triazol-5-yl)pyridin-2-yl)piperidin-4-yl)amino)methyl)pyridin-3-yl)-N-hydroxyacrylamide formate], for which the IC50 in test [1] was 0.19 nM; in test [2], 10.6 nM; in test [3], 24.5 nM; in test [4] it was 305 nM.
On the same counts, the results for `CC(C)(O)Cn1nnc2cc(-c3cnc(N4CCC(NCc5ccc(/C=C/C(=O)NO)nc5)CC4)c(C#N)c3-c3ccc(C#N)c(F)c3)ccc21` [Example 225, (E)-3-(5-(((1-(3-Cyano-4-(4-cyano-3-fluorophenyl)-5-(1-(2-hydroxy-2-methylpropyl)-1H-benzo[d][1,2,3]triazol-5-yl)pyridin-2-yl)piperidin-4-yl)amino)methyl)pyridin-2-)-N-hydroxyacrylamide formate] are 0.35 nM, 3.43 nM, 8.51 nM and 78 nM.
On the same counts, the results for `CC(C)(O)Cn1nnc2cc(-c3cnc(N4CCC(NCc5ccc(/C=C/C(=O)NO)cc5)CC4)c(C#N)c3-c3ccc(C#N)c(F)c3)c(F)c(F)c21` [Example 226, (E)-3-(4-(((1-(3-Cyano-4-(4-cyano-3-fluorophenyl)-5-(6,7-difluoro-1-(2-hydroxy-2-methylpropyl)-1H-benzo[d][1,2,3]triazol-5-yl)pyridin-2-yl)piperidin-4-yl)amino)methyl)phenyl-N-hydroxyacrylamide formate] are 0.02 nM, 24.8 nM, 2.31 nM and 99.2 nM.
On to `COc1ccc(-c2cnc(N3CCC(CNCc4ccc(/C=C/C(=O)NO)cc4)C3)c(C#N)c2-c2ccc(C#N)c(F)c2)cc1O` (stereo not drawn) [Example 228, (E)-3-(4-((((1-(3-Cyano-4-(4-cyano-3-fluorophenyl)-5-(3-hydroxy-4-methoxyphenyl)pyridin-2-yl)pyrrolidin-3-yl)methyl)amino)methyl)phenyl)-N-hydroxyacrylamide hydrochloride], for which the IC50 in test [1] worked out at 0.9 nM; in test [2] it was 24.3 nM; in test [3] it was 91.7 nM; in test [4] it was 84.8 nM.
In the same order, the values of `CC1(NCc2ccc(/C=C/C(=O)NO)cc2)CCN(c2ncc(-c3ccc(OCC4(O)CC4)c(O)c3)c(-c3ccc(C#N)c(F)c3)c2C#N)CC1` [Example 229, (E)-3-(4-(1-(3-cyano-4-(4-cyano-3-fluorophenyl)-5-(3-hydroxy-4-((1-hydroxycyclopropyl)methoxy)phenyl)pyridin-2-yl)-4-methylpiperidin-4-yl)amino)methyl) phenyl)-N-hydroxyacrylamide formate] are 0.88 nM, 30.8 nM, 9.36 nM and 529 nM.
`COc1ccc(-c2cnc(N3CCC(NCc4ncc(/C=C/C(=O)NO)cc4F)CC3)c(C#N)c2-c2ccc(C#N)c(F)c2)cc1O` [Example 230, (E)-3-(6-(((1-(3-Cyano-4-(4-cyano-3-fluorophenyl)-5-(3-hydroxy-4-methoxyphenyl)pyridin-2-yl)piperidin-4-yl)amino)methyl)-5-fluoropyridin-3-yl)-N-hydroxyacrylamide formate]: the IC50 was 1.45 nM in test [1], 10.3 nM in test [2], 4.67 nM in test [3] and 77 nM in test [4].
In the same order, the values of `CC(NC1CCN(c2ncc(-c3ccc(OCC(C)(C)O)c(O)c3)c(-c3ccc(C#N)c(F)c3)c2C#N)CC1)c1ccc(/C=C/C(=O)NO)cc1` (stereo not drawn) [Example 235, (E)-3-(4-(1-((1-(3-Cyano-4-(4-cyano-3-fluorophenyl)-5-(3-hydroxy-4-(2-hydroxy-2-methylpropoxy)phenyl)pyridin-2-yl)piperidin-4-yl)amino)ethyl)phenyl)-N-hydroxyacrylamide formate] are 2.38 nM, 8.01 nM, 2.35 nM and 19.2 nM.
With `Cc1noc2cc(-c3cnc(N4CCC(NCc5ccc(/C=C/C(=O)NO)cn5)CC4)c(C#N)c3-c3ccc(C#N)c(F)c3)c(F)cc12` [Example 236, (E)-3-(6-(((1-(3-Cyano-4-(4-cyano-3-fluorophenyl)-5-(5-fluoro-3-methylbenzo[d]isoxazol-6-yl)pyridin-2-yl)piperidin-4-yl)amino)methyl)pyridin-3-yl)-N-hydroxyacrylamide formate], the IC50 in test [1] came out at 0.59 nM; in test [2], 37 nM; in test [3] it was 6.02 nM; in test [4], 410 nM.
`N#Cc1ccc(-c2c(-c3ccc(Cl)c(O)c3)cnc(N3CCC(NCc4ccc(/C=C/C(=O)NO)cn4)CC3)c2C#N)cc1F` [Example 239, (E)-3-(6-(((1-(5-(4-Chloro-3-hydroxyphenyl)-3-cyano-4-(4-cyano-3-fluorophenyl)pyridin-2-yl)piperidin-4-yl)amino)methyl)pyridin-3-yl)-N-hydroxyacrylamide formate]: the IC50 worked out at 2.36 nM in test [1], 10.2 nM in test [2], 11.6 nM in test [3] and 25.2 nM in test [4].
On the same counts, the results for `COc1ccc(-c2cnc(N3CCC(NCc4ccc(/C=C/C(=O)NO)cc4)C(C)C3)c(C#N)c2-c2ccc(C#N)c(F)c2)cc1O` (stereo not drawn) [Example 242, (E)-3-(4-(((1-(3-Cyano-4-(4-cyano-3-fluorophenyl)-5-(3-hydroxy-4-methoxyphenyl)pyridin-2-yl)-3-methylpiperidin-4-yl)amino)methyl)-N-hydroxyacrylamide formate] are 2.44 nM, 16 nM, 18.4 nM and 17.8 nM.
As for `N#Cc1ccc(-c2c(-c3ccc(N4CCOCC4)c(O)c3)cnc(N3CCC(NCc4ccc(/C=C/C(=O)NO)cn4)CC3)c2C#N)cc1F` [Example 246, (E)-3-(6-(((1-(3-Cyano-4-(4-cyano-3-fluorophenyl)-5-(3-hydroxy-4-morpholinophenyl)pyridin-2-yl)piperidin-4-yl)amino)methyl)pyridin-3-yl)-N-hydroxyacrylamide formate], the IC50 in test [1] was found to be 0.93 nM; in test [2] it was 5.38 nM; in test [3], 10.8 nM; in test [4], 14.3 nM.
In the same order, the values of `COc1ccc(-c2cnc(N3CCC(NCc4ccc(/C=C/C(=O)NO)cc4)CC3)c(C#N)c2-c2cnc(C#N)nc2)cc1O` [Example 250, E)-3-(4-(((1-(3-Cyano-4-(2-cyanopyrimidin-5-yl)-5-(3-hydroxy-4-methoxyphenyl)pyridin-2-yl)piperidin-4-yl)amino)methyl) phenyl)-N-hydroxyacrylamide formate] are 17 nM, 1.08 nM, 2.42 nM and 1.93 nM.

The IC50 is the concentration that gives 50% inhibition. Low readings indicate higher potency, high ones lower potency.
